The source made the active and inactive calls. The rule behind the calls is not given here.

Assay [1] relates to Monkey. Description: Analgesic activity in monkeys. It is filed as functional, Cercopithecidae.
Assay [2] is filed under the species Mus musculus. Description: Compound was evaluated for the inhibition of [3H]naloxone binding to mouse brain homogenate at 1 nM in the presence of 100 mM sodium; ED50 = […] nM. It is filed as functional.
The species named for assay [3] is Mus musculus. Description: Ratio between the ED50 values in presence and absence of sodium; value ranges from […]. The class given is functional.
The species named for assay [4] is Mus musculus. Description: (§1) Compound was evaluated for the inhibition of [3H]naloxone binding to mouse brain homogenate at 1 nM in the absence of sodium. It is filed as functional.
For assay [5], the species on record is Mus musculus. Description: Compound was evaluated for the hotplate analgesic activity in mouse. The class given is functional. Further details: unit not given here.
Assay [6] is filed under the species Mus musculus. Description: Ratio between the ED50 values in presence and absence of sodium; value ranges from 2-2.5. It is filed as functional.
The species entered for assay [7] is Mus musculus. Description: Compound was evaluated for the hotplate analgesic activity. The class given is functional.
Assay [8] has as its target Mu-type opioid receptor (Mus musculus) (UniProt P42866). Description: Compound was evaluated for the inhibition of [3H]naloxone binding to opioid receptor mu mouse brain homogenate at 1 nM in the presence of 100 mM sodium; ED50 = 40-50 nM. The class given is tissue-based.
Assay [9] has the same target. Description: Compound was evaluated for the inhibition of [3H]naloxone binding to opioid receptor mu of mouse brain homogenate at 1 nM in the absence of sodium. It is filed as tissue-based.
The species named for assay [10] is Mus musculus. Description: Ratio between the ED50 values in presence and absence of sodium. It is filed as functional.
The species named for assay [11] is Mus musculus. Description: (§2) Compound was evaluated for the inhibition of [3H]naloxone binding to mouse brain homogenate at 1 nM in the presence of 100 mM sodium. The class given is functional.
The subject of assay [12] is Monkey. Description: Physical dependence capacity (PDC) of the compound; no physical dependence capacity. The class given is functional, organism-based. To be noted: Cercopithecidae.
Assay [13] has as its system Monkey. Description: Antagonistic potency of the compound; not active. The class given is functional, organism-based. Particulars: Cercopithecidae.
The test system of assay [14] is Monkey. Description: Physical dependence capacity (PDC) of the compound; intermed physical dependence capacity. It is filed as functional, organism-based. Particulars: Cercopithecidae.
For assay [15], the species on record is Mus musculus. Description: Compound was evaluated for the hotplate analgesic activity; IA=inactive. The class given is functional, organism-based.
The species entered for assay [16] is Mus musculus. Description: Ratio between the ED50 values in presence and absence of sodium; value ranges from 1.2-1.5. It is filed as functional.
Assay [17] concerns the target Mu-type opioid receptor (Mus musculus) (UniProt P42866). The assay is described as §1. It is filed as tissue-based.
The target is the same in assay [18]. Description: Compound was evaluated for the inhibition of [3H]naloxone binding to opioid receptor mu of mouse brain homogenate at 1 nM in the presence of 100 mM sodium; ED50=600-700 nM. The class given is tissue-based.
Assay [19] shares this target. Description: Compound was evaluated for the inhibition of [3H]-naloxone binding to mouse brain homogenate at 1 nM in the presence of 100 mM sodium. The class given is tissue-based.
Assay [20] has the same target. Description: Compound was evaluated for the inhibition of [3H]naloxone binding to mouse brain homogenate at 1 nM in the absence of sodium; ED50 = 7-10 nM. The class given is tissue-based.
Assay [21] shares this target. Description: Ratio between the ED50 values in presence and absence of sodium; value ranges from 7-10.
For assay [22] the target is unchanged. The assay is described as §2. It is filed as tissue-based.
Assay [23] addresses Mu-type opioid receptor (Rattus norvegicus) (UniProt P33535). Description: Ratio between the ED50 values in presence and absence of sodium; value ranges from 3.8-5. It is filed as functional. Particulars: Mus musculus.
The species entered for assay [24] is Mus musculus. Description: Compound was evaluated for the inhibition of [3H]naloxone binding to mouse brain homogenate at 1 nM in the presence of 100 mM sodium; ED50 = 1500-2000 nM. The class given is functional.
The subject of assay [25] is Monkey. Description: Physical dependence capacity (PDC) of the compound; high physical dependence capacity. The class given is functional, organism-based. Particulars: Cercopithecidae.
The species named for assay [26] is Mus musculus. Description: Compound was evaluated for the inhibition of [3H]naloxone binding to mouse brain homogenate at 1 nM in the presence of 100 mM sodium; ED50 = 800-1000 nM. It is filed as functional.
The species named for assay [27] is Mus musculus. Description: Ratio between the ED50 values in presence and absence of sodium; value ranges from 4-5. It is filed as functional.
In assay [28] the test system is Monkey. Description: Physical dependence capacity (PDC) of the compound; very low physical dependence capacity. The class given is functional, organism-based. To be noted: Cercopithecidae.
Assay [29] relates to Monkey. Description: Physical dependence capacity (PDC) of the compound; low physical dependence capacity. The class given is functional, organism-based. To be noted: Cercopithecidae.
Assay [30] has as its system Monkey. Description: aAntagonistic potency of the compound; not active. The class given is functional, organism-based. Particulars: Cercopithecidae.
[31] abbreviates: Cercopithecidae, in Primates, read-out: ED50.

Mu-type opioid receptor (Mus musculus), sequence (P42866 whole entry): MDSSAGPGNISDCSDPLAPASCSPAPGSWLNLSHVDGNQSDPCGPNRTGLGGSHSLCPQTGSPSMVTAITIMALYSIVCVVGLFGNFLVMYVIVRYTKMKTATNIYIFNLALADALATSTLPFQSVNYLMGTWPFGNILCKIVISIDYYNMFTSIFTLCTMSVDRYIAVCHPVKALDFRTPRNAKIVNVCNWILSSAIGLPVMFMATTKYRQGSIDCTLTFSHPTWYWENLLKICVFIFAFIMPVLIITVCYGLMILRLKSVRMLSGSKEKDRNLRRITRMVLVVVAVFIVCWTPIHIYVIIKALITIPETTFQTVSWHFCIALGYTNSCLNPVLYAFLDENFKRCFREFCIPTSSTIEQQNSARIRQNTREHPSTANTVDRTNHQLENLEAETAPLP
Mu-type opioid receptor (Rattus norvegicus), sequence (P33535 whole entry): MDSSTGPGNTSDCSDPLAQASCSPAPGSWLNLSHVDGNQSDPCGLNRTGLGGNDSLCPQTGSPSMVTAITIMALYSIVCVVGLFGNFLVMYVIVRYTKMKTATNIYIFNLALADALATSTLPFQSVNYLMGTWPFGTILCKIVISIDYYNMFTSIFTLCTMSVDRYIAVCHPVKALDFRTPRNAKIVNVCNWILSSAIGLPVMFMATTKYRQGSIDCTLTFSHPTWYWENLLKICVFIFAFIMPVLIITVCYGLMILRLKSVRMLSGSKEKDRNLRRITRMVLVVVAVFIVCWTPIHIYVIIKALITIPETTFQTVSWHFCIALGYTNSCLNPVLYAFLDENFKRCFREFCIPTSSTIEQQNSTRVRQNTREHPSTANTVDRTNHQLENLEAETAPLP

Regarding `CN1CC[C@]2(C)CC1Cc1ccc(O)cc12` (stereo in doubt; form 2), the ED50 in the assay on Monkey [1] came to 3.2 mg/kg.
As for `CCCCN1CCC(C(=O)CC)(c2cccc(O)c2)CC1`, the figures for the ED50 in the assay filed under Mus musculus [2], in the assay filed under Mus musculus [4] and in the assay listed under Mus musculus [5] were 600 nM, 50 nM and 4.6, respectively. The Ratio in the assay filed under Mus musculus [3] is 12.
As to `CCCCCCCN1CCC(C(=O)CC)(c2cccc(O)c2)CC1`, the Ratio in the assay filed under Mus musculus [6] came out at 2. In addition, the ED50 in the assay listed under Mus musculus [7] amounted to 9000 nM; in assay [8], 40 nM; in [9], 20 nM.
Take `CCCCCCN1CCC(C(=O)CC)(c2cccc(O)c2)CC1`: the values for the ED50 in the assay listed under Mus musculus [4], in the assay filed under Mus musculus [11] and in the assay listed under Mus musculus [5] were 20 nM, 40 nM and 7.5, respectively. Also, the Ratio in the assay listed under Mus musculus [10] was determined as 2.
As to `CC[C@H]1C2Cc3ccc(O)cc3[C@]1(CC)CCN2C`, the PDC entry in the assay with Monkey [12] and in the assay with Monkey [14] was “intermed physical dependence capacity” in each case. The Antagonist potency result with Monkey [13] was “inactive”.
Regarding `CCCCCCCCCCN1CCC(C(=O)CC)(c2cccc(O)c2)CC1`, the ED50 entry in the assay listed under Mus musculus [15] is “inactive”. For the same compound, the Ratio in the assay filed under Mus musculus [16] amounted to 1.2. Further, the ED50 in assay [17] was found to be 500 nM; in assay [18], 600 nM.
Turning to `CCCCCCCCN1CCC(C(=O)CC)(c2cccc(O)c2)CC1`, the ED50 in assay [19] turned out to be 200 nM; in the assay listed under Mus musculus [7] it was 26500 nM; in [17] it was 200 nM. Moreover, the Ratio in the assay filed under Mus musculus [10] came out at 1.
For the compound `C[C@H]1C2Cc3ccc(O)cc3[C@]1(C)CCN2C`, the ED50 result in the assay with Monkey [1] (Cercopithecidae) is “inactive”. In the assay with Monkey [1] (setting [31]), the ED50 was found to be 0.6 mg/kg. The PDC entry in the assay with Monkey [12] was “no physical dependence capacity”. For the same compound, in the assay on Monkey [13], the Antagonist potency result was “inactive”.
As for `CCC(=O)C1(c2cccc(O)c2)CCN(C)CC1` [KETOBEMIDONE], the ED50 in [20] was 7 nM; in [22] it was 70 nM; in the assay filed under Mus musculus [5], 2.1. Besides, the Ratio in assay [21] was determined as 7.
Turning to `CCC(=O)C1(c2cccc(O)c2)CCN(CC)CC1`, the results for the ED50 in the assay filed under Mus musculus [4], in the assay listed under Mus musculus [5] and in the assay filed under Mus musculus [24] were 400 nM, 67.2 and 1500 nM, respectively. Further, the Ratio in assay [23] is 3.8.
`CN1CC[C@@H]2CC1Cc1ccc(O)cc12`: in the assay with Monkey [1] (setting [31]), the ED50 was found to be 4.5 mg/kg.
For the compound `CCC[C@]12CCN(C)C(Cc3ccc(O)cc31)[C@@H]2C`, the PDC result in the assay with Monkey [25] and with Monkey [12] was “high physical dependence capacity” in each case. Besides, the Antagonist potency entry in the assay on Monkey [13] is “inactive”.
In the assay on Monkey [1], `CC1C2Cc3ccc(O)cc3[C@]1(C)CCN2C` (stereo in doubt; form 1) displayed an ED50 of 0.1 mg/kg.
With `CCCCCCCCCN1CCC(C(=O)CC)(c2cccc(O)c2)CC1`, the ED50 in [19] and in assay [17] was 700 nM throughout. Moreover, the ED50 entry in the assay filed under Mus musculus [15] was “inactive”. Besides, the Ratio in the assay listed under Mus musculus [10] is 1.
In turn, `CC1C2Cc3ccc(O)cc3[C@@H]1CCN2C` (stereo in doubt; form 1) registered an ED50 in the assay on Monkey [1] of 1.1 mg/kg.
Take `CCCN1CCC(C(=O)CC)(c2cccc(O)c2)CC1`: the ED50 in the assay filed under Mus musculus [26] came to 800 nM; in the assay listed under Mus musculus [4], 200 nM; in the assay listed under Mus musculus [5], 16. Further, the Ratio in the assay filed under Mus musculus [27] was determined as 4.
On to `CN1CC[C@]2(C)CC1Cc1ccc(O)cc12` (stereo in doubt; form 1) [listing 1 of 2 here], for which, in the assay on Monkey [28], the PDC result was “no physical dependence capacity”. The Antagonist potency entry in the assay on Monkey [13] is “inactive”.
As to `CN1CC[C@]2(C)CC1Cc1ccc(O)cc12` (stereo in doubt; form 1) [listing 2 of 2 here], in the assay with Monkey [1], the ED50 amounted to 22.9 mg/kg.
For `CC[C@]12CCN(C)C(Cc3ccc(O)cc31)C2`, the PDC result in the assay with Monkey [29] and with Monkey [12] was “low physical dependence capacity” in each case. Moreover, in the assay on Monkey [13], the Antagonist potency entry is “inactive”.
As to `CN1CC[C@]2(C)CC1Cc1ccc(O)cc12` (stereo in doubt; form 3) [listing 1 of 2 here], the PDC result in the assay on Monkey [12] is “no physical dependence capacity”.
As to `COc1ccc2c3c1O[C@H]1[C@@H](O)C=C[C@H]4[C@@H](C2)N(C)CC[C@@]341` [CODEINE], in the assay on Monkey [1] (setting [31]), the ED50 turned out to be 7.5 mg/kg. Moreover, in the assay with Monkey [13], the Antagonist potency result is “inactive”. The PDC entry in the assay on Monkey [14] is “Partially active”.
`CC1C2Cc3ccc(O)cc3[C@@H]1CCN2C` (stereo in doubt; form 2) gave an ED50 with Monkey [1] of 4.3 mg/kg.
As to `CCCCCN1CCC(C(=O)CC)(c2cccc(O)c2)CC1`, the ED50 in the assay listed under Mus musculus [4] stood at 8 nM; in the assay listed under Mus musculus [11], 30 nM; in the assay listed under Mus musculus [5] it was 0.78. Also, the Ratio in the assay listed under Mus musculus [10] was 3.8.
As to `CN1CC[C@]23c4c5ccc(O)c4O[C@H]2[C@@H](O)C=C[C@H]3[C@H]1C5` [MORPHINE], the PDC result in the assay with Monkey [25] was “Active”. The ED50 with Monkey [1] (setting [31]) turned out to be 1.2 mg/kg. For the same compound, the Antagonist potency result in the assay on Monkey [30] is “inactive”.
As for `CN1CC[C@]2(C)CC1Cc1ccc(O)cc12` (stereo in doubt; form 3) [listing 2 of 2 here], the ED50 in the assay with Monkey [1] turned out to be 1.8 mg/kg.
The same measure, in the same setting: the figure for `CC1C2Cc3ccc(O)cc3[C@]1(C)CCN2C` (stereo in doubt; form 2) is 1.2 mg/kg.

These data come from ChEMBL document CHEMBL1126308, “Alfred Burger Award address. A half century in medicinal chemistry with major emphasis on pain-relieving drugs and their antagonists” (1992).
